Values quoted from earlier work as cited in patent publication US6967218B2, “Pravastatin pharmaceutical formulations and methods of their use” (Biovail Laboratories, Inc., priority 2002, dated 2005).

Columns and labels:
[1] = intravenous, healthy volunteers
[2] = in vivo
[3] = Schalke et al, 1992

share of total body clearance by non-renal routes (biliary excretion and biotransformation) [1]: 53% | share of total body clearance via renal excretion [1]: approximately 47% | first-pass extraction ratio in the liver [2]: 0.66 | decrease of systemic bioavailability after bedtime (PM) dose compared to morning (AM) dose (PM vs AM dose): 60% | absolute bioavailability (oral, man): 17% | fraction of radiolabeled oral dose excreted in feces (radiolabeled oral dose): 70% | fraction of radiolabeled oral dose excreted in urine (radiolabeled oral dose): Approximately 20%
Structure (SMILES): CC[C@H](C)C(=O)O[C@H]1C[C@H](O)C=C2C=C[C@H](C)[C@H](CC[C@@H](O)C[C@@H](O)CC(=O)O)[C@H]21 [pravastatin, Pravastatin]
adverse effect observed in treated patients [3]: Severe myopathy
